Assay results: patent US20240279641A1, “Structural Neuroplasticity Enhancer Screen” (Northwestern University, priority 2021, published 2024)

Columns and labels:
Type in all cases: cell-based, mouse
cFos = test: Western blot analysis of forskolin stimulation in cell culture: cFos; details: 1 μM forskolin vs 0.1% DMSO, normalized band signal, n=3, adj. p=0.0462
Description: (§1) For initial 384-well plate set up and western blot validation, forskolin (from 25 mM DMSO stock) was used as a positive control and DMSO was used as a vehicle control. For example, at 25 and 2.5 μM forskolin (0.1%, 0.01% DMSO), the corresponding vehicle control was 0.1% and 0.01% DMSO, respectively. Media was changed to NB-27 containing pharmacological agents (concentration specified in figure legends) and processed as described in each section 16 hrs after treatment.
(§2) Cell pellets were sonicated in NP40 lysis buffer (1% NP40, 150 mM NaCl, 50 mM Tris, pH 8, 1× Halt). Proteins were separated in 12% Tris-glycine gels and transferred to nitrocellulose membrane (Cat. No. 926-31090, LI-COR, NE, USA). Blots were briefly rinsed with TBS. Total protein was detected using REVERT 700 according to the manufacturer instructions. For detecting individual proteins, unless specified, blots were blocked with 5% milk-containing TBST (0.1% Tween20) for 1 hr at RT. Primary antibodies were added in the same blocking buffer for overnight incubation (1:1,000 rabbit RFP, Rockland, Cat. No., 600-401-379-RTU, and 1:1,000 mouse Psd95 Biolegend Cat. Nol, 810401)). […] All quantification was performed using LI-COR Image Studio version 5.2. For densitometry quantification, band signals were normalized to total protein stain in each blot using the equation below. […]

NanoLuc = test: Western blot analysis of forskolin stimulation in cell culture: NanoLuc (RFP); details: 1 μM forskolin vs 0.1% DMSO, normalized band signal, n=3, adj. p=0.324
Description: as §1, §2

Psd95 = test: Western blot analysis of forskolin stimulation in cell culture: Psd95; details: 1 μM forskolin vs 0.1% DMSO, normalized band signal, n=3, adj. p=1
Description: as §1, §2

primary cortical neurons = test: Western blot of biotinylation by TurboID constructs in cortical neurons; details: 55 mM KCl
Description: (§3) Animals were handled according to protocols approved by the Northwestern University Animal Care and Use Committee. Cortical neurons were harvested from mouse embryos euthanized at embryonic day 18 and plated in poly-D-lysine coated plates. Embryonic brains were dissected in ice-cold dissection media (Hank's balance salt solution HBSS, 2% penicillin-streptomycin, 20 mM HEPES). Meninges were removed from each brain and cortices were dissected out. The cortices were chopped into small pieces using a microscissors and pooled in 5 mL dissection media containing 0.25% trypsin and 0.1% DNasel and trypsinised at 37° ° C. for 20-25 min. Cortices were washed twice with warm dissection media, and once with warm plating medium (MEM, supplemented with 10% heat-inactivated horse serum, 0.6% glucose, 1 mM Na pyruvate, 1% Glutamax, 1% penicillin-streptomycin) for 5 min each. Tissues were titurated in 3 mL fresh plating medium with unpolished and, subsequently, polished glass Pasteur pipettes. […]
Cell pellets were sonicated in NP40 lysis buffer (1% NP40, 150 mM NaCl, 50 mM Tris, pH 8, 1× Halt). […] Total protein was detected using REVERT 700 according to the manufacturer instructions. […] All quantification was performed using LI-COR Image Studio version 5.2. For densitometry quantification, band signals were normalized to total protein stain in each blot using the equation below.

[1] = test system: primary hippocampal and cortical neurons; test: SARE-ArcMin-luciferase-PSD95-mVenus luciferase assay in primary neuronal cultures, 96-well; details: hippocampal vs cortical primary cultures, 96-well plate
Description: as §3, with “pipettes. 1 k, 80 k, 150 k, 2500 k cells were seeded in 384-well, 12-well, 6-well plates, 10-cm dishes, respectively.” for “pipettes.”
Luciferase substrate systems were prepared according to the Manufacturer's instructions. […] Plates were read by Biotek Syngery Neo2 plate reader. […]

With `C=C[C@@]1(C)CC(=O)[C@]2(O)[C@@]3(C)[C@@H](O)CCC(C)(C)[C@@H]3[C@H](O)[C@H](OC(C)=O)[C@@]2(C)O1` [forskolin] the “cFos expression, FSK−DMSO” value (cFos) was 3.232±0.769, the “NanoLuc expression, FSK−DMSO” value (NanoLuc) was 0.583±0.267 and the “Psd95 expression, FSK−DMSO” value (Psd95) was −0.048±0.1131.

For `[Cl-].[K+]` [KCl], the “biotin-labelling after induction of neuronal activity” value (primary cortical neurons) was “enhanced biotin-labelling”.

`COc1ccc(-c2ccc(=N)n(CCCC(=O)O)n2)cc1` [Gabazine] was tested, and the “dose-response of luciferase activity, construct (1)” value [1] was “dose-response is cell-type specific”.

In the case of `CNC1(c2ccccc2Cl)CCCCC1=O` (stereo not drawn) [Ketamine], the “dose-response of luciferase activity, construct (1)” value [1] is reported as “dose-response is cell-type specific”.
